Measured values published in the supplement of paper PMC10307832.

What was measured:
Experiment in all cases: relative viability (nuclei count vs DMSO), 5 days (fraction); higher = more cells survive
NCI-H1355 = system: NCI-H1355
Summary of the method: (§1)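 The day after seeding in 1536-well plates, lung cancer cell lines were treated by pin tool with a single drug, or with a fixed anchor-drug dose together with five library-drug doses (not always all listed) in √10 steps. After 5 days, a combined fix-and-stain solution (final 0.05% Triton X-100, 1% formaldehyde, 1 ug/ml Hoechst) was added. Nuclei counted on 4× images gave relative viability as treated counts over vehicle counts, reported as the median of duplicate plates.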

NCI-H2228 = system: NCI-H2228
Summary of the method: as §1

A-427 = system: A-427
Summary of the method: as §1

NCI-H596 = system: NCI-H596
Summary of the method: as §1

NCI-H3122 = system: NCI-H3122
Summary of the method: as §1

NCI-H1650 = system: NCI-H1650
Summary of the method: as §1

NCI-H1755 = system: NCI-H1755
Summary of the method: as §1

H3255 = system: H3255
Summary of the method: as §1

SW 1573 = system: SW 1573
Summary of the method: as §1

LK-2 = system: LK-2
Summary of the method: as §1

NCI-H2347 = system: NCI-H2347
Summary of the method: as §1

NCI-H1666 = system: NCI-H1666
Summary of the method: as §1

With `O=c1[nH]c2ccccc2n1C1CCN(CCCC(c2ccc(F)cc2)c2ccc(F)cc2)CC1` [Pimozide] + CCNC(=O)c1noc(-c2cc(C(C)C)c(O)cc2O)c1-c1ccc(CN2CCOCC2)cc1 [Luminespib] (partner 0.01 µM) the relative viability (NCI-H1355; first compound 0.08 µM) was 0.728, the relative viability (NCI-H1355; first compound 0.253 µM) was 0.63 and the relative viability (NCI-H1355; first compound 0.8 µM) was 0.633. It also gave a relative viability (NCI-H1355; first compound 2.53 µM) of 0.557, a relative viability (NCI-H1355; first compound 8 µM) of 0.642 and a relative viability (NCI-H2228; first compound 0.08 µM) of 0.116. For the same compound, the relative viability (NCI-H2228; first compound 0.253 µM) was 0.149, the relative viability (NCI-H2228; first compound 0.8 µM) was 0.152 and the relative viability (NCI-H2228; first compound 2.53 µM) was 0.18. For the same compound, the relative viability (NCI-H2228; first compound 8 µM) was 0.122, the relative viability (A-427; first compound 0.08 µM) was 0.703 and the relative viability (A-427; first compound 0.253 µM) was 0.793. The relative viability (A-427; first compound 0.8 µM) was 0.936, the relative viability (A-427; first compound 2.53 µM) was 0.857 and the relative viability (A-427; first compound 8 µM) was 0.768. It also gave a relative viability (NCI-H596; first compound 0.08 µM) of 0.97, a relative viability (NCI-H596; first compound 0.253 µM) of 1.11 and a relative viability (NCI-H596; first compound 0.8 µM) of 1.11. For the same compound, the relative viability (NCI-H596; first compound 2.53 µM) was 0.776, the relative viability (NCI-H596; first compound 8 µM) was 0.847 and the relative viability (NCI-H3122; first compound 0.08 µM) was 0.109. The relative viability (NCI-H3122; first compound 0.253 µM) was 0.0961, the relative viability (NCI-H3122; first compound 0.8 µM) was 0.105 and the relative viability (NCI-H3122; first compound 2.53 µM) was 0.0832. It also gave a relative viability (NCI-H3122; first compound 8 µM) of 0.0656, a relative viability (NCI-H1650; first compound 0.08 µM) of 0.206 and a relative viability (NCI-H1650; first compound 0.253 µM) of 0.204. The relative viability (NCI-H1650; first compound 0.8 µM) was 0.187, the relative viability (NCI-H1650; first compound 2.53 µM) was 0.187 and the relative viability (NCI-H1650; first compound 8 µM) was 0.199. The relative viability (NCI-H1755; first compound 0.08 µM) was 0.433, the relative viability (NCI-H1755; first compound 0.253 µM) was 0.418 and the relative viability (NCI-H1755; first compound 0.8 µM) was 0.373. The relative viability (NCI-H1755; first compound 2.53 µM) was 0.526, the relative viability (NCI-H1755; first compound 8 µM) was 0.476 and the relative viability (H3255; first compound 0.253 µM) was 0.926. It also gave a relative viability (H3255; first compound 0.8 µM) of 0.684, a relative viability (H3255; first compound 2.53 µM) of 0.883 and a relative viability (H3255; first compound 8 µM) of 0.799. For the same compound, the relative viability (SW 1573; first compound 0.08 µM) was 0.214, the relative viability (SW 1573; first compound 0.253 µM) was 0.301 and the relative viability (SW 1573; first compound 0.8 µM) was 0.188. It also gave a relative viability (SW 1573; first compound 2.53 µM) of 0.223, a relative viability (SW 1573; first compound 8 µM) of 0.198 and a relative viability (LK-2; first compound 0.08 µM) of 0.18. The relative viability (LK-2; first compound 0.253 µM) was 0.165, the relative viability (LK-2; first compound 2.53 µM) was 0.18 and the relative viability (LK-2; first compound 8 µM) was 0.188. The relative viability (NCI-H2347; first compound 0.253 µM) was 0.3, the relative viability (NCI-H2347; first compound 0.8 µM) was 0.374 and the relative viability (NCI-H2347; first compound 2.53 µM) was 0.582. It also gave a relative viability (NCI-H2347; first compound 8 µM) of 0.266, a relative viability (NCI-H1666; first compound 0.08 µM) of 0.922 and a relative viability (NCI-H1666; first compound 0.253 µM) of 1.03. For the same compound, the relative viability (NCI-H1666; first compound 0.8 µM) was 0.979.
